In patent publication US20180369244A1, “BTK Inhibitors to Treat Solid Tumors Through Modulation of the Tumor Microenvironment” (Acerta Pharma B.V., priority 2014, published 2018):

Assays:
B cell receptor = experiment: Whole blood B cell receptor signalling, CD69 on CD19+ B cells; format: cell-based; details: 2 h incubation, anti-human IgD 18 h
Experimental: Blood from four healthy donors was incubated for 2 hours with the compounds shown over a concentration range, and then stimulated with anti-human IgD [10 μg/mL] for 18 hours. The mean fluorescent intensity (MFI) of CD69 (and CD86, data not shown) on gated CD19+ B cells was measured by flow cytometry. MFI values were normalized so that 100% represents CD69 level in stimulated cells without inhibitor, while 0% represents the unstimulated/no drug condition. […]

[1] = tested on: human platelet-mediated thrombosis; details: mouse, in vivo
Experimental: Injury to the vessel wall of arterioles ([…] diameter) was performed using a pulsed nitrogen dye laser (440 nm, Photonic Instruments) applied through a 20× water-immersion Olympus objective (LUMPlanF1, 0.5 numerical aperature (NA)) of a Zeiss Axiotech vario microscope. […] The extent of thrombus formation was assessed for 2 minutes after injury and the area (μm^2) of coverage determined (Image IQ, Andor Technology).
The BTK inhibitor-treated human platelets were fluorescently labeled and infused continuously through a catheter inserted into the femoral artery.

CLL, MCL, NHL patients = details: monotherapy, dose levels through 840 mg; cited from earlier work
CD8+ T cells [2] = experiment: Cytotoxic T cell (CTL) assay; format: cell-based; details: 500 nM
Experimental: CD8^+ T cells have at least two primary effector functions: (1) produce large amounts of IFN-γ (which activates macrophages), and (2) cytolytic activity. […] The targets were B lymphoblasts from lipopolysaccharide (LPS) treated cultures. The assay was performed by incubating different ratios of effectors:targets for 4 hours.

NK cells = experiment: Antibody-dependent NK cell degranulation (CD107a flow cytometry); format: cell-based, human; details: DHL-4 target cells
CD4+ T cells = experiment: Th17 and Treg development from CD4+ T cells; format: cell-based
Experimental: Enriched CD4^+ T cells are plated on 24-well culture dishes that have been precoated 2 hr with 250 μL anti-TCRβ (0.5 μg/mL) plus anti-CD28 (5 μg/mL) at 37° C. in PBS. The cells are then supplemented with media containing BTK inhibitors along with the skewing cytokines as indicated in the following. The Th17 and Treg cultures are grown for 4 days before analysis. The cells are maintained for an additional 3 days with skewing cytokines (Th17; 20 ng/mL IL-6, 0.5 ng/mL TGF-β, 5 μg/mL IL-4, 5 μg/mL IFN-γ and Treg; 0.5 ng/mL TGF-β, 5 μg/mL IL-4, 5 μg/mL IFN-γ) and are supplemented with IL2 as a growth factor.

Raji cells = experiment: Rituximab ADCC chromium release assay; format: cell-based, human; details: 1 μM
From the text: Cell culture conditions were as follows. […] The HER18 cells were maintained in DEM supplemented with fetal bovine serum, penicillin-streptomycin and. Prior to assay, HER18 cells were harvested using trypsin-EDTA, washed with phosphate-buffered saline (PBS) containing 5% serum and viable cells were counted. For culture of primary target cells, peripheral blood from CLL patients was subject to density centrifugation to obtain peripheral blood mononuclear cells (PBMC). Cell preparations were washed and then subject to positive selection of CD5+CD19^+ CLL cells using magnetic beads (MACS, Miltenyi Biotech). Cell preparations were used fresh after selection. NK cells from CLL patients and healthy volunteers were enriched from peripheral blood collected in sodium citrate anti-coagulant tubes and then subject to density centrifugation. Removal of non NK cells was performed using negative selection by MACS separation. Freshly isolated NK cells were washed three times, enumerated, and then used immediately for ADCC assays.
ADCC assays were performed as follows. Briefly, target cells (Raji or primary CLL) were labeled by incubation at 37° C. with 100 μCi ^51Cr for 4 hours prior to co-culture with NK cells. Cells were washed, enumerated, and then added in triplicate to prepared 96-well plates containing treated NK cells at an effector:target (E:T) ratio of 25:1. […] The effect of NK cell natural cytotoxicity was assessed in wells containing no rituximab. Cultures were incubated at 37° C. for 4 hours, and then centrifuged. Supernatants were harvested and ^51Cr release was measured by liquid scintillation counting. All experiments were performed in triplicate.

[3] = tested on: GPVI platelet aggregation; experiment: GPVI platelet aggregation (convulxin-induced); format: cell-based, human
Experimental: GPVI platelet aggregation was measured for Formula (II) and Formula (X) (ibrutinib). Blood was obtained from untreated humans, and platelets were purified from […] by centrifugation. Cells were resuspended to a final concentration of […] in buffer containing 145 mmol/L NaCl, 10 mmol/L HEPES, 0.5 mmol/L Na2HPO4, 5 mmol/L KCl, 2 mmol/L MgCl2, 1 mmol/L CaCl2, and 0.1% glucose, at pH 7.4. Stock solutions of Convulxin (CVX) GPVI were prepared on the day of experimentation and added to platelet suspensions 5 minutes (37° C., 1200 rpm) before the induction of aggregation. Aggregation was assessed with a Chronolog Lumi-Aggregometer (model 540 VS; Chronolog, Havertown, Pa.) and permitted to proceed for 6 minutes after the addition of agonist. The results are reported as maximum percent change in light transmittance from baseline with platelet buffer used as a reference.
In FIG. 23, the results of CVX-induced (250 ng/mL) human platelet aggregation results before and 15 minutes after administration of the BTK inhibitors to 6 healthy individuals are shown.

CD8+ T cells [4] = experiment: CD8+ T cell viability; format: cell-based; details: 4 days culture
Experimental: Total T cells were plated on anti-TCR and anti-CD28 coated wells in the presence of both BTK inhibitors. Neutral culture conditions were used that will not polarize T cells to a helper lineage. The cells are grown for 4 days and are then stained with anti-CD4, anti-CD8 and LIVE/DEAD reagent to determine if the drugs have selective effects on either the CD4^+ or CD8^+ cells. Statistical significance was calculated using the Mann Whitney T-test. […]

CLL = details: cited from earlier work
[5] = Phase 1 portion, relapsed/refractory CLL (n=13)

Row | Compound | EC50 (B cell receptor) [nM] | effect on thrombus formation [1] | maximum tolerated dose (MTD) (CLL, MCL, NHL patients) | CD8+ T cell function as % cytotoxicity (CD8+ T cells [2]) | CD8+ T cell function as IFN-γ levels (CD8+ T cells [2]) | reduction of rituximab-stimulated NK cell degranulation (NK cells) [%] | Th17 and Treg development (CD4+ T cells) | rituximab ADCC, NK cell activity (Raji cells; FIG. 31) | antibody-dependent lysis of rituximab-coated Raji cells (Raji cells; healthy donor NK cells) | GPVI platelet aggregation ([3]; FIG. 22 and FIG. 23) | IC50 ([3]; Homo sapiens, Platelet, FIG. 22) [nM] | CD8+ T cell viability (CD8+ T cells [4]) | response rate (CLL; Phase 1, previously treated CLL, monotherapy) [%] | infusion related reactions, Grade 3 (CLL; [5]) [%] | patients with all grade AE (infusion related reactions) (CLL; [5]) [%] | IRR cases developing symptoms of hypotension (CLL; Phase 2 portion) [%] | hypotension cases that were Grade 3 reactions (CLL; Phase 2 portion) [%] | patients who developed IRR (CLL; Phase 2 portion) [%]
1 | C=CC(=O)Nc1cccc(Nc2nc(Nc3ccc(OCCOC)cc3)ncc2F)c1 [CC-292, N-(3-((5-fluoro-2-((4-(2-methoxyethoxy)phenyl)amino)pyrimidin-4-yl)amino)phenyl)acrylamide] | 121 | interfere with thrombus formation | – | – | – | – | – | – | – | – | – | – | – | – | – | – | – | –
2 | C=CC(=O)N1CCC[C@@H](n2nc(-c3ccc(Oc4ccccc4)cc3)c3c(N)ncnc32)C1 [ibrutinib, 1-[(3R)-3-[4-amino-3-(4-phenoxyphenyl)-1H-pyrazolo[3,4-d]pyrimidin-1-yl]piperidin-1-yl]prop-2-en-1-one, reference compound] | 6.1 | interfere with thrombus formation | No maximum tolerated dose (MTD) was apparent | affects CD8^+ T cell function | significant loss of function | ~50 | a profound inhibition of Th17 cells and an increase in Treg development | completely inhibited ADCC | strongly inhibited the antibody-dependent lysis of target cells | significantly inhibits GPVI platelet aggregation | 130 | strong, negative effect | – | – | – | – | – | –
3 | obinutuzumab: humanized monoclonal antibody directed against CD20, type II glycoengineered | – | – | – | – | – | – | – | – | – | – | – | – | 62 | 15 | 100 | 60 | 25 | 95
